Drawing on patent publication US20250074913A1, “PYRAZOLE DERIVATIVES AS STING AGONISTS” (Hoffmann-La Roche Inc., priority 2022, published 2025), this text covers EC50 for 21 compounds.

Test [1] concerns human PBMC. The test is described as follows: hPBMC cytokine release assay (Luminex, IFN-β). The class given is cell-based. The settings on record: read-out: Agonist_hPBMC_IFN-β_EC50. On the procedure:
This is the cytokines concentration detection with Luminex assay for human PBMC supernatant. Human peripheral blood mononuclear cells (PBMC) are treated by compounds with appropriate time. Multiple cytokines are released in the supernatant in response to the compound stimulation. Luminex assay can measure the cytokines concentration in supernatant and the compounds activity on human PBMC can be evaluated.
Frozen PBMC was thawed and cultured in PRMI1640 (GIBCO 11875-093) whole medium with […] Heat inactivated-FBS (HI—FBS), 1% NEAA, […] in CO2 incubator overnight. Cells were centrifuged at 400×g for 5 minutes at 4° C. and the pellet was re-suspended with complete RPMI1640 medium to concentration of 1×10^6 cells/ml in cell culture flask T75 (Thermo Fisher Scientific). Compounds were serially diluted with DMSO and distributed to 96-well flat bottom cell plate (Corning 3599) with Echo555. 90 μL/well PBMC cells were seeded into the plates with Multidrop (Thermo Fisher Scientific). After 24 hours of incubation in CO2 incubator, cells were centrifuged at 400×g for 5 minutes at room temperature, 80 μL supernatant each well was collected for cytokines release test with luminex assay of Human custom ProcartaPlex 5-plex kit (Thermo Fisher Scientific PPX-05). 10 μL supernatant or standards were added to a mixture of color-coded beads, 5 μL Biotinylated detection antibodies specific to the analytes of interest were added and formed an antibody-antigen sandwich. 10 μL Phycoerythrin (PE)-conjugated streptavidin is added to the plate and then read signal of each well on the Luminex 200™. The raw data was analyzed by Millipore Analyst Software and cytokine concentrations were generated accordingly. The EC50 of corresponding cytokine such as interferon-β (IFN-β) was calculated by the 4-parameter sigmoidal concentration response model fitting.

For test [2], the system named is interferon regulatory factor (IRF) pathway in THP1-Dual™ cells. The test is described as follows: THP1-Dual reporter gene assay (Agonist_THP1_EC50). The class given is cell-based. Particulars: Homo sapiens, 20-24 hrs compound treatment, Lucia luciferase (IRF) readout. The source says:
This is the cellular reporter assay to evaluate compounds' agonism to interferon regulatory factor (IRF) pathway in THP1-Dual™ cells (InvivoGen, cat number thpd-nfis). THP1-Dual™ cells were derived from the human THP-1 monocyte cell line by stable integration lucia luciferase gene, a new secreted luciferase reporter gene, under the control of an ISG54 (interferon-stimulated gene) minimal promoter in conjunction with five interferon (IFN)-stimulated response elements. As a result, THP1-Dual™ cells allow the study of the IRF pathway, by assessing the activity of Lucia luciferase. Lucia luciferase protein is readily measurable in the cell culture supernatant when using QUANTI-Luc™ (InvivoGen, cat: rep-qlcg-500).
After 20-24 hrs compound treatment in THP1-Dual cells, the compounds' agonism to IRF pathway and cell toxicity were tested by measuring luminescence and OD 450 on an Envision plate reader.
On the day of experiment, 30 μL of test medium (RPMI 1640, 2 mM L-glutamine, 25 mM HEPES, […] heat-inactivated fetal bovine serum) was dispensed in a white 384-well plate (Grenier, cat: 781098) containing the serially diluted compounds (final 1% DMSO) transferred by the Echo550 machine. Then 30 μL of cell suspension (˜33,000 cells, 1.1×10^6 cells/mL) per well was added immediately by thermo multidrop combi dispenser for incubation 20-24 h at 37° C., […]. At the end of the incubation, 10 μL of cellular supernatant was transferred to proxiplate 384-plus plate for IRF detection, and then 10 μL of QUANTI-Luc™ Gold solution was added to the plate that proceeded with the measurement immediately. To detect cell viability, 30 μL of the CCK-8 working solution (Dojindo Molecular Technologies, cat: CK04-20) was added to the cell plate, which was Incubated for 2 hrs in the incubator to measure the absorbance at 450 nm using Envision.

Where [3] appears, read: 24 hours incubation, IFN-β in supernatant.

Like-named read-outs stand apart in the source and are kept apart here.

On to `Cc1cc2c(C(N)=O)nn(-c3nc(-c4c(O)c(C)nn4CCc4cccc(F)c4)n[nH]3)c2cn1` [Example 55, 1-(3-(1-(3-fluorophenethyl)-4-hydroxy-3-methyl-1H-pyrazol-5-yl)-1H-1,2,4-triazol-5-yl)-5-methyl-1H-pyrazolo[3,4-c]pyridine-3-carboxamide], for which the figures for the EC50 in test [1] (setting [3]) and in test [2] were 32 nM and 13 nM, respectively.

As to `Cc1nn(CCc2ccccc2)c(-c2n[nH]c(-c3nc(C(N)=O)cc4c3cnn4C)n2)c1O` [Example 82, 4-(5-(4-hydroxy-3-methyl-1-phenethyl-1H-pyrazol-5-yl)-2H-1,2,4-triazol-3-yl)-1-methyl-1H-pyrazolo[4,3-c]pyridine-6-carboxamide], the results for the EC50 in test [1] (setting [3]) and in test [2] were 29 nM and 8 nM, respectively.

Take `CCCn1nc(C)c(O)c1-c1nc(-n2nc(C(N)=O)c3cc(C)ncc32)n(C)n1` [Example 84, 1-[5-(4-hydroxy-5-methyl-2-propyl-pyrazol-3-yl)-2-methyl-1,2,4-triazol-3-yl]-5-methyl-pyrazolo[3,4-c]pyridine-3-carboxamide]: the values for the EC50 in test [1] (setting [3]) and in test [2] were 18 nM and 34 nM, respectively.

In the case of `Cc1cn2c(C(N)=O)nc(-c3nc(-c4c(O)c(C)nn4CCc4ccccc4)n[nH]3)c2cn1` [Example 53, 1-[3-[4-hydroxy-5-methyl-2-(2-phenylethyl)pyrazol-3-yl]-1H-1,2,4-triazol-5-yl]-6-methyl-imidazo[1,5-a]pyrazine-3-carboxamide], the EC50 in test [1] (setting [3]) was determined as 26 nM; in test [2], 12 nM.

Regarding `CCCCn1nc(C)c(O)c1-c1n[nH]c(-c2nc(C(N)=O)n3cc(C)ncc23)n1` [Example 77, 1-[3-(2-butyl-4-hydroxy-5-methyl-pyrazol-3-yl)-1H-1,2,4-triazol-5-yl]-6-methyl-imidazo[1,5-a]pyrazine-3-carboxamide], the EC50 came to 20 nM in test [1] (setting [3]) and 17 nM in test [2].

As for `CCCn1nc(C)c(O)c1-c1n[nH]c(-c2nc(C(N)=O)n3cc(C)ncc23)n1` [Example 80, 1-[3-(4-hydroxy-5-methyl-2-propyl-pyrazol-3-yl)-1H-1,2,4-triazol-5-yl]-6-methyl-imidazo[1,5-a]pyrazine-3-carboxamide], the EC50 is 42 nM in test [1] (setting [3]) and 20 nM in test [2].

Take `CCCn1nc(C)c(O)c1-c1n[nH]c(-c2cc(C(N)=O)n3cc(C)ncc23)n1` [Example 91, 8-[3-(4-hydroxy-5-methyl-2-propyl-pyrazol-3-yl)-1H-1,2,4-triazol-5-yl]-3-methyl-pyrrolo[1,2-a]pyrazine-6-carboxamide]: the EC50 in test [1] (setting [3]) is 38 nM; in test [2] it was 16 nM.

Consider `CCCn1nc(C)c(O)c1-c1nc(-n2nc(C(N)=O)c3cc(C)ncc32)co1` [Example 58, 1-(2-(4-hydroxy-3-methyl-1-propyl-1H-pyrazol-5-yl)oxazol-4-yl)-5-methyl-1H-pyrazolo[3,4-c]pyridine-3-carboxamide], for which the EC50 amounted to 17 nM in test [1] (setting [3]) and 6 nM in test [2].

As for `Cc1cc2c(C(N)=O)nn(-c3coc(-c4c(O)c(C)nn4CCC(F)F)n3)c2cn1` [Example 67, 1-(2-(1-(3,3-difluoropropyl)-4-hydroxy-3-methyl-1H-pyrazol-5-yl)oxazol-4-yl)-5-methyl-1H-pyrazolo[3,4-c]pyridine-3-carboxamide], the EC50 amounted to 24 nM in test [1] (setting [3]) and 18 nM in test [2].

On to `CCCn1nc(C)c(O)c1-c1nc(-n2nc(C(N)=O)c3cc(C)ncc32)c(CO)o1` [Example 83, 1-[5-(hydroxymethyl)-2-(4-hydroxy-5-methyl-2-propyl-pyrazol-3-yl)oxazol-4-yl]-5-methyl-pyrazolo[3,4-c]pyridine-3-carboxamide], for which the EC50 stood at 23 nM in test [1] (setting [3]) and 22 nM in test [2].

Turning to `Cc1cc2c(C(N)=O)nn(-c3nc(-c4c(O)c(C)nn4CCc4ccc(F)cc4)n[nH]3)c2cn1` [Example 52, 1-[3-[2-[2-(4-fluorophenyl)ethyl]-4-hydroxy-5-methyl-pyrazol-3-yl]-1H-1,2,4-triazol-5-yl]-5-methyl-pyrazolo[3,4-c]pyridine-3-carboxamide], the EC50 in test [1] (setting [3]) worked out at 18 nM; in test [2], 13 nM.

As to `CCCCn1nc(C)c(O)c1-c1nc(-c2nc(C(N)=O)n3cc(C)ncc23)co1` [Example 86, 1-[2-(2-butyl-4-hydroxy-5-methyl-pyrazol-3-yl)oxazol-4-yl]-6-methyl-imidazo[1,5-a]pyrazine-3-carboxamide], the EC50 turned out to be 30 nM in test [1] (setting [3]) and 16 nM in test [2].

In the case of `COc1ccc(CCn2nc(C)c(O)c2-c2n[nH]c(-c3nc(C(N)=O)n4cc(C)ncc34)n2)cc1` [Example 70, 1-[3-[4-hydroxy-2-[2-(4-methoxyphenyl)ethyl]-5-methyl-pyrazol-3-yl]-1H-1,2,4-triazol-5-yl]-6-methyl-imidazo[1,5-a]pyrazine-3-carboxamide], the EC50 in test [1] (setting [3]) came out at 10 nM; in test [2] it was 6 nM.

Take `Cc1nn(CC=C(F)F)c(-c2n[nH]c(-c3nc(C(N)=O)cc4c3cnn4C)n2)c1O` [Example 34, 4-[3-[2-(3,3-difluoroallyl)-4-hydroxy-5-methyl-pyrazol-3-yl]-1H-1,2,4-triazol-5-yl]-1-methyl-pyrazolo[4,3-c]pyridine-6-carboxamide]: the values for the EC50 in test [1] (setting [3]) and in test [2] were 11 nM and 12 nM, respectively.

Consider `CCCn1nc(C)c(O)c1-c1nc(-c2cc(C(N)=O)n3cc(C)ncc23)co1` [Example 94, 8-[2-(4-hydroxy-5-methyl-2-propyl-pyrazol-3-yl)oxazol-4-yl]-3-methyl-pyrrolo[1,2-a]pyrazine-6-carboxamide], for which the EC50 worked out at 6 nM in test [1] (setting [3]) and 15 nM in test [2].

`CCn1nc(C)c(O)c1-c1nc(-c2nc(C(N)=O)cc3c2cnn3C)co1` [AE01, reference compound]: the EC50 in test [1] (prior art compounds (Table 4), IFN-β) came out at 40 nM.

In test [2], `Cc1cn2c(C(N)=O)c(F)c(-c3nc(-c4c(O)c(C)nn4CCc4cccnc4)n[nH]3)c2cn1` [Example 73, 7-fluoro-8-[3-[4-hydroxy-5-methyl-2-[2-(3-pyridyl)ethyl]pyrazol-3-yl]-1H-1,2,4-triazol-5-yl]-3-methyl-pyrrolo[1,2-a]pyrazine-6-carboxamide] yielded an EC50 of 39 nM.

With `CCn1nc(C)c(O)c1-c1n[nH]c(-c2nc(C(N)=O)n3cc(C(F)F)ncc23)n1` [Example 26, 6-(difluoromethyl)-1-[3-(2-ethyl-4-hydroxy-5-methyl-pyrazol-3-yl)-1H-1,2,4-triazol-5-yl]imidazo[1,5-a]pyrazine-3-carboxamide], the EC50 in test [2] turned out to be 340 nM.

As for `Cc1cc2c(C(N)=O)nn(-c3nc(-c4c(O)c(C)nn4C4CC4)n[nH]3)c2cn1` [Example 33, 1-[3-(2-cyclopropyl-4-hydroxy-5-methyl-pyrazol-3-yl)-1H-1,2,4-triazol-5-yl]-5-methyl-pyrazolo[3,4-c]pyridine-3-carboxamide], the EC50 in test [2] was determined as 135 nM.

In test [2], `COc1cccc(CCn2nc(C)c(O)c2-c2nc(-n3nc(C(N)=O)c4cc(C)ncc43)co2)c1` [Example 75, 1-(2-(4-hydroxy-1-(3-methoxyphenethyl)-3-methyl-1H-pyrazol-5-yl)oxazol-4-yl)-5-methyl-1H-pyrazolo[3,4-c]pyridine-3-carboxamide] came in with an EC50 of 49 nM.

Compound `Cc1nn(CCn2nccn2)c(-c2n[nH]c(-c3nc(C(N)=O)cc4c3cnn4C)n2)c1O` [Example 35, 4-[3-[4-hydroxy-5-methyl-2-[2-(triazol-2-yl)ethyl]pyrazol-3-yl]-1H-1,2,4-triazol-5-yl]-1-methyl-pyrazolo[4,3-c]pyridine-6-carboxamide] registered an EC50 in test [2] of 79 nM.
